Article PMC3867539 (Angewandte Chemie (International ed. in English), 2013)

How the values were obtained:
CYP71A12 = CYP71A12 (Arabidopsis thaliana, UniProt O49340); details: estimate only, not a measured constant; Cys as thiol donor
CYP71A13 = CYP71A13 (Arabidopsis thaliana, UniProt O49342); details: estimate only, not a measured constant; Cys as thiol donor
CYP71A13, sequence (O49342 whole entry): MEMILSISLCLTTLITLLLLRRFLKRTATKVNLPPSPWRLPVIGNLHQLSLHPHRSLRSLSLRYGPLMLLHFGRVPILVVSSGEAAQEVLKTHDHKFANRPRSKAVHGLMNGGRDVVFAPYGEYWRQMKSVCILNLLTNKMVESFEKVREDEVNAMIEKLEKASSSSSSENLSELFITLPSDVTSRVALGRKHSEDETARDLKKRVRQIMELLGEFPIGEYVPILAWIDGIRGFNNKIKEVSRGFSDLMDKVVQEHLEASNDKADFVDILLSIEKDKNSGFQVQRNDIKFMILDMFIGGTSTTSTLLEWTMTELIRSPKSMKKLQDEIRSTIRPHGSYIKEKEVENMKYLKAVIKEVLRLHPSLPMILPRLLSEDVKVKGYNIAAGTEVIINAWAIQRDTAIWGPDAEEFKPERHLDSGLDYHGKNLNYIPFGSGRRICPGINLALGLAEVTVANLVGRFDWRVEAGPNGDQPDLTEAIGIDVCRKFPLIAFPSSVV

CYP71A12, sequence (O49340 whole entry): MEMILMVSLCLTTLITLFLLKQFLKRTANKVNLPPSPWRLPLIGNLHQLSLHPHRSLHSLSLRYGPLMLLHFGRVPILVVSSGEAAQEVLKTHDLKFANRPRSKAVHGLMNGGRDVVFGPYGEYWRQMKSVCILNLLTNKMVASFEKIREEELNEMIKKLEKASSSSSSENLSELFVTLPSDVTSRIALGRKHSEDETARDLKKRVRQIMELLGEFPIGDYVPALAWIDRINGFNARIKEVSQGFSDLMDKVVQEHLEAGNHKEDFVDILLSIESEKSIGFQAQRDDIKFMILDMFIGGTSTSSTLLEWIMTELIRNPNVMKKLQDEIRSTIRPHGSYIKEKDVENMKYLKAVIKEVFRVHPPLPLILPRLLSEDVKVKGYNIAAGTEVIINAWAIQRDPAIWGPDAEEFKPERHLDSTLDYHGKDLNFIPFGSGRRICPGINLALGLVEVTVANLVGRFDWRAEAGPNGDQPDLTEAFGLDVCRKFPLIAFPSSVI

N#CCc1c[nH]c2ccccc12 [IAN]
Km (CYP71A12): > 100 µM | Km (CYP71A13): > 100 µM
